This note sets out measurements from ChEMBL document CHEMBL3232729, “Marsupellins A-F, ent-longipinane-type sesquiterpenoids from the Chinese liverwort Marsupella alpine with acetylcholinesterase inhibitory activity” (J Nat Prod, 2014).

Sequence of Acetylcholinesterase (Homo sapiens) (P22303 whole entry): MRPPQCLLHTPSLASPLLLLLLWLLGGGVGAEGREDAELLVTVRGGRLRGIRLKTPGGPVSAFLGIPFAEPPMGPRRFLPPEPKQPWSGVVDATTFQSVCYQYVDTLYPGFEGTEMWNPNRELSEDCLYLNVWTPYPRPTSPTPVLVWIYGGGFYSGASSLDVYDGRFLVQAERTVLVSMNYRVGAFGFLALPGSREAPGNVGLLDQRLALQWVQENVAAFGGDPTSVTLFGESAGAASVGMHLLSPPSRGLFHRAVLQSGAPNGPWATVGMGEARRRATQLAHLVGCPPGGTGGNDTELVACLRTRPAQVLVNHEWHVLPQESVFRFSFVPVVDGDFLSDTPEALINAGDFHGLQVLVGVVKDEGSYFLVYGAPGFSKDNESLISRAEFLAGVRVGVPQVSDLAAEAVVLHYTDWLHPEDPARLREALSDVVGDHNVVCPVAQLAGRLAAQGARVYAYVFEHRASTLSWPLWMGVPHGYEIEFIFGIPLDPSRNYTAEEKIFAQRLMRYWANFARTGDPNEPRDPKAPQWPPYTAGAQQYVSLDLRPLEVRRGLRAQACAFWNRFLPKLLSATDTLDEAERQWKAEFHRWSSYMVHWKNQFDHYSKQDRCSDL

This experiment addresses Acetylcholinesterase (Homo sapiens) (UniProt P22303).
Description: Inhibition of AChE (unknown origin) assessed as minimum inhibitory concentration by bioautographic TLC assay
With `C[C@@H]1C(=O)C[C@H]2[C@H]3[C@@H]1C2(C)CCCC3(C)C`, the MIC was 4 µg.

Molecule `CC(=O)OC[C@]12CCCC(C)(C)[C@@H]3[C@H]1[C@@]1(CO1)C(=O)C[C@@H]32` displayed an MIC of 4 µg. In the case of `C[C@H]1[C@@H]2[C@@H]3[C@@H]4C[C@@]1(O)OC[C@@]24CCCC3(C)C`, the MIC came to 0.8 µg. In the case of `C=C1C(=O)C[C@H]2[C@H]3[C@@H]1C2(COC(C)=O)CCCC3(C)C` it was 4 µg; in that of `C=C1OC(=O)C[C@H]2[C@H]3[C@@H]1[C@]2(COC(C)=O)CCCC3(C)C`, 4 µg. As to `CC(=O)OC[C@]12CCCC(C)(C)[C@@H]3[C@H]1[C@]1(CO1)C(=O)C[C@@H]32`, the MIC stood at 4 µg. To `C[C@H]1[C@@H]2[C@@H]3[C@@H]4C[C@@]1(O)OC(=O)[C@@]24CCCC3(C)C` belongs 0.6 µg; to `C=C1[C@H](O)C[C@H]2[C@H]3[C@@H]1C2(COC(C)=O)CCCC3(C)C`, 4 µg.

As for `C=C1[C@@H](O)[C@H](O)[C@H]2[C@H]3[C@@H]1C2(C)CCCC3(C)C`, the MIC was determined as 4 µg.
